Several values for one entry are separate records, joined by “and”; a condition that tells them apart may be missing. Equal entries are not always repeated.
What follows are compounds tested on CAL-51 (assay: normalised viability (% of control), CellTiter-Blue; higher = more viable cells (about 100 = DMSO control)). Conditions: 10 nM; incubation time: 72 h.
Experimental: (§1)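 DSRT, CellTiter-Blue viability, 72 h incubation. Signal is normalised to DMSO and benzethonium chloride controls. Value is the normalised response at dose 3.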

Row | Compound | normalised viability
1 | CCc1c2c(nc3ccc(OC(=O)N4CCC(N5CCCCC5)CC4)cc13)-c1cc3c(c(=O)n1C2)COC(=O)[C@]3(O)CC [Irinotecan] | 99.2% and 118%

What follows are compounds tested on CAL-85-1 in the same assay as above. Conditions: 10 nM; incubation time: 72 h.
Experimental: as §1

Row | Compound | normalised viability
2 | Cc1cc(Nc2cc(CN3CCOCC3)c3nc(C)c(Cc4ccc(Cl)cc4F)n3n2)n[nH]1 | 91.6%
3 | N#Cc1ccc(COC[C@H]2O[C@@H](n3c(NCc4ccc(Cl)c(Cl)c4)nc4c(N)ncnc43)[C@H](O)[C@@H]2O)cc1 | 110%
4 | COc1cc(OC2CCN(C)CC2)ccc1Nc1ncc2c(n1)n(C1CCCC1)c(=O)n2C [AZ 3146] | 94.8%
5 | CN(C)c1nc(N(C)C)nc(N(C)C)n1 [Altretamine] | 102%
6 | COC(=O)c1ccc2c(c1)NC(=O)/C2=C(\Nc1ccc(N(C)C(=O)CN2CCN(C)CC2)cc1)c1ccccc1 [BIBF 1120] | 99.9%
7 | Nc1cc(C(F)(F)F)c(-c2cc(N3CCOCC3)nc(N3CCOCC3)n2)cn1 [BKM-120] | 86.6%
8 | COc1cc2ncnc(Nc3ccc(F)c(Cl)c3)c2cc1OCCCN1CCOCC1 [Gefitinib] | 94.2% and 95.5%
9 | CCc1c2c(nc3ccc(OC(=O)N4CCC(N5CCCCC5)CC4)cc13)-c1cc3c(c(=O)n1C2)COC(=O)[C@]3(O)CC [Irinotecan] | 90.9% and 99.3%

What follows are compounds tested on DU-4475 in the same assay as above. Conditions: 10 nM; incubation time: 72 h.
Experimental: as §1

Row | Compound | normalised viability
10 | Cc1cc(Nc2cc(CN3CCOCC3)c3nc(C)c(Cc4ccc(Cl)cc4F)n3n2)n[nH]1 | 99.6%
11 | N#Cc1ccc(COC[C@H]2O[C@@H](n3c(NCc4ccc(Cl)c(Cl)c4)nc4c(N)ncnc43)[C@H](O)[C@@H]2O)cc1 | 111%
12 | COc1cc(OC2CCN(C)CC2)ccc1Nc1ncc2c(n1)n(C1CCCC1)c(=O)n2C [AZ 3146] | 101%
13 | CN(C)c1nc(N(C)C)nc(N(C)C)n1 [Altretamine] | 104%
14 | COC(=O)c1ccc2c(c1)NC(=O)/C2=C(\Nc1ccc(N(C)C(=O)CN2CCN(C)CC2)cc1)c1ccccc1 [BIBF 1120] | 114%
15 | Nc1cc(C(F)(F)F)c(-c2cc(N3CCOCC3)nc(N3CCOCC3)n2)cn1 [BKM-120] | 98.3%
16 | COc1cc2ncnc(Nc3ccc(F)c(Cl)c3)c2cc1OCCCN1CCOCC1 [Gefitinib] | 108% and 93.9%
17 | CCc1c2c(nc3ccc(OC(=O)N4CCC(N5CCCCC5)CC4)cc13)-c1cc3c(c(=O)n1C2)COC(=O)[C@]3(O)CC [Irinotecan] | 115% and 123%

What follows are compounds tested on HCC1143 in the same assay as above. Conditions: 100 nM; incubation time: 72 h.
Experimental: as §1

Row | Compound | normalised viability
18 | Cc1cc(Nc2cc(CN3CCOCC3)c3nc(C)c(Cc4ccc(Cl)cc4F)n3n2)n[nH]1 | 71.4%
19 | N#Cc1ccc(COC[C@H]2O[C@@H](n3c(NCc4ccc(Cl)c(Cl)c4)nc4c(N)ncnc43)[C@H](O)[C@@H]2O)cc1 | 94.7%
20 | COc1cc(OC2CCN(C)CC2)ccc1Nc1ncc2c(n1)n(C1CCCC1)c(=O)n2C [AZ 3146] | 133%
21 | CN(C)c1nc(N(C)C)nc(N(C)C)n1 [Altretamine] | 91.7%
22 | COC(=O)c1ccc2c(c1)NC(=O)/C2=C(\Nc1ccc(N(C)C(=O)CN2CCN(C)CC2)cc1)c1ccccc1 [BIBF 1120] | 88.2%
23 | Nc1cc(C(F)(F)F)c(-c2cc(N3CCOCC3)nc(N3CCOCC3)n2)cn1 [BKM-120] | 86.1%
24 | COc1cc2ncnc(Nc3ccc(F)c(Cl)c3)c2cc1OCCCN1CCOCC1 [Gefitinib] | 63% and 86.8%
25 | CCc1c2c(nc3ccc(OC(=O)N4CCC(N5CCCCC5)CC4)cc13)-c1cc3c(c(=O)n1C2)COC(=O)[C@]3(O)CC [Irinotecan] | 89.1% and 112%

What follows are compounds tested on HCC1599 in the same assay as above. Conditions: 100 nM; incubation time: 72 h.
Experimental: as §1

Row | Compound | normalised viability
26 | Cc1cc(Nc2cc(CN3CCOCC3)c3nc(C)c(Cc4ccc(Cl)cc4F)n3n2)n[nH]1 | 122%
27 | N#Cc1ccc(COC[C@H]2O[C@@H](n3c(NCc4ccc(Cl)c(Cl)c4)nc4c(N)ncnc43)[C@H](O)[C@@H]2O)cc1 | 97.1%
28 | COc1cc(OC2CCN(C)CC2)ccc1Nc1ncc2c(n1)n(C1CCCC1)c(=O)n2C [AZ 3146] | 90.1%
29 | CN(C)c1nc(N(C)C)nc(N(C)C)n1 [Altretamine] | 109%
30 | COC(=O)c1ccc2c(c1)NC(=O)/C2=C(\Nc1ccc(N(C)C(=O)CN2CCN(C)CC2)cc1)c1ccccc1 [BIBF 1120] | 91.3%
31 | Nc1cc(C(F)(F)F)c(-c2cc(N3CCOCC3)nc(N3CCOCC3)n2)cn1 [BKM-120] | 70.1%
32 | COc1cc2ncnc(Nc3ccc(F)c(Cl)c3)c2cc1OCCCN1CCOCC1 [Gefitinib] | 102% and 113%

These compounds were tested on HCC1937 in the same assay as above. Conditions: 100 nM; incubation time: 72 h.
Experimental: as §1

Row | Compound | normalised viability
33 | Cc1cc(Nc2cc(CN3CCOCC3)c3nc(C)c(Cc4ccc(Cl)cc4F)n3n2)n[nH]1 | 101%
34 | N#Cc1ccc(COC[C@H]2O[C@@H](n3c(NCc4ccc(Cl)c(Cl)c4)nc4c(N)ncnc43)[C@H](O)[C@@H]2O)cc1 | 99.4%
35 | COc1cc(OC2CCN(C)CC2)ccc1Nc1ncc2c(n1)n(C1CCCC1)c(=O)n2C [AZ 3146] | 81.8%
36 | CN(C)c1nc(N(C)C)nc(N(C)C)n1 [Altretamine] | 91.8%
37 | COC(=O)c1ccc2c(c1)NC(=O)/C2=C(\Nc1ccc(N(C)C(=O)CN2CCN(C)CC2)cc1)c1ccccc1 [BIBF 1120] | 115%
38 | Nc1cc(C(F)(F)F)c(-c2cc(N3CCOCC3)nc(N3CCOCC3)n2)cn1 [BKM-120] | 112%

Source: the supplement of paper PMC4862054
